In one assay the target is hNav1.3 (Homo sapiens, UniProt Q9NY46). In words: cell-based. The settings on record: IonWorks Quattro; clamped to −110 mV, depolarized to −10 mV, 5 min after compound; n=2; read-out: IWQ Use Nav1.3.
In the next assay the target is hNav1.5 (Homo sapiens, UniProt Q14524). In words: cell-based.
Setting [1] is: IonWorks Quattro, clamped to −110 mV, depolarized to −10 mV, 5 min after compound, n=2, read-out: IWQ Use Nav1.5.

Where two headings read alike, the source gives them in different places. Positions of bridges follow the written chain, without caps; N, C: chain ends. Residues, ends and D or L forms follow the SMILES beside them.

Chain of hNav1.5 (Q14524 whole entry, looked up): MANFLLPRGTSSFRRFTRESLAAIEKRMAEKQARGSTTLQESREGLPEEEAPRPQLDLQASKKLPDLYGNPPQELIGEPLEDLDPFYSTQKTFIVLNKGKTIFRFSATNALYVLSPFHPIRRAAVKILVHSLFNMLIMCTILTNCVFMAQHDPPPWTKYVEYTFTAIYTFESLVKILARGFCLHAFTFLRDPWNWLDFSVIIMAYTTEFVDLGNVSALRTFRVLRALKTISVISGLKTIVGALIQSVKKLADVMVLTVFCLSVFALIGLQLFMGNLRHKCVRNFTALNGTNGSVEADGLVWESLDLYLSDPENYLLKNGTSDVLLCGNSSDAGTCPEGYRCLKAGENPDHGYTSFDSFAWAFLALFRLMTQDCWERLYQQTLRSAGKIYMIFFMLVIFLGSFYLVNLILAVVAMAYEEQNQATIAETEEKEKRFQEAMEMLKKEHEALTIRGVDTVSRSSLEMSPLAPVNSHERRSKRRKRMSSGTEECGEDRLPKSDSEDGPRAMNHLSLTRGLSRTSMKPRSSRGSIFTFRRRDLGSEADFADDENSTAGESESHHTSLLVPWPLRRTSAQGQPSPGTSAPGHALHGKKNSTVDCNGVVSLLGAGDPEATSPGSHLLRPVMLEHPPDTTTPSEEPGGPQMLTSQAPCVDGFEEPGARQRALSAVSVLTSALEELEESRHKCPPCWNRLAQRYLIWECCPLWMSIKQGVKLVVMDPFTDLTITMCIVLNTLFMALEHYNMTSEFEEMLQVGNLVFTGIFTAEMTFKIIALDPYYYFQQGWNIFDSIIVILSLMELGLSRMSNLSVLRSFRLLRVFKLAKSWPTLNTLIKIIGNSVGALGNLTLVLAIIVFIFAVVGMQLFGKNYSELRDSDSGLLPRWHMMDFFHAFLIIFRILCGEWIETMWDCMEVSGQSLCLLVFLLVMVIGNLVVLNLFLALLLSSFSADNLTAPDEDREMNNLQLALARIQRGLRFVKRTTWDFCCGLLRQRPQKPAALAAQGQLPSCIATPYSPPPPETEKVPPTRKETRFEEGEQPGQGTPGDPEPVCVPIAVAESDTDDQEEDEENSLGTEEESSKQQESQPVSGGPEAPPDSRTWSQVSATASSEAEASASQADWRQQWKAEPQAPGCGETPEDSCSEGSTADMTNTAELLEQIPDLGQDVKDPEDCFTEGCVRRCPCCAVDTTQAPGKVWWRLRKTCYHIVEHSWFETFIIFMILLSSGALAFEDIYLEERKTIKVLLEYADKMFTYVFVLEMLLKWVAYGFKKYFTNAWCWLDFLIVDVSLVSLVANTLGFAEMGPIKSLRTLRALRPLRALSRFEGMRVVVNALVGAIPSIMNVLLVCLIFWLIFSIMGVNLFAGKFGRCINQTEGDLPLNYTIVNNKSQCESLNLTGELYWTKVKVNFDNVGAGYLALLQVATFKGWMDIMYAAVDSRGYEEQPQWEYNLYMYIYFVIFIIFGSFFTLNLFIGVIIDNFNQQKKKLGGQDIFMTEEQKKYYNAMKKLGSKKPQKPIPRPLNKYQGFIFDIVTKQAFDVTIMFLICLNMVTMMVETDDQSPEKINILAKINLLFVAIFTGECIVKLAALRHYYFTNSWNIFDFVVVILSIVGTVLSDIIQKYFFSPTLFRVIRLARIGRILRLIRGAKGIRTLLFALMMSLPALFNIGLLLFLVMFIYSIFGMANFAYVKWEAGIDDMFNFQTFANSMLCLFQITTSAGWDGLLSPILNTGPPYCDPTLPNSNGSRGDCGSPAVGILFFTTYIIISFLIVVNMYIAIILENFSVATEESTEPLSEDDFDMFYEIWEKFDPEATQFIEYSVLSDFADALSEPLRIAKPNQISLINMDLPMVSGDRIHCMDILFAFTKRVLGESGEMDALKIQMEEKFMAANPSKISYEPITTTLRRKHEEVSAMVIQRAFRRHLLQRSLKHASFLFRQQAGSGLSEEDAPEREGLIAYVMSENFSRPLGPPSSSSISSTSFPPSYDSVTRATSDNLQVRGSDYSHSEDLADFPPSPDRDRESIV
Chain of hNav1.3 (Q9NY46 whole entry, looked up): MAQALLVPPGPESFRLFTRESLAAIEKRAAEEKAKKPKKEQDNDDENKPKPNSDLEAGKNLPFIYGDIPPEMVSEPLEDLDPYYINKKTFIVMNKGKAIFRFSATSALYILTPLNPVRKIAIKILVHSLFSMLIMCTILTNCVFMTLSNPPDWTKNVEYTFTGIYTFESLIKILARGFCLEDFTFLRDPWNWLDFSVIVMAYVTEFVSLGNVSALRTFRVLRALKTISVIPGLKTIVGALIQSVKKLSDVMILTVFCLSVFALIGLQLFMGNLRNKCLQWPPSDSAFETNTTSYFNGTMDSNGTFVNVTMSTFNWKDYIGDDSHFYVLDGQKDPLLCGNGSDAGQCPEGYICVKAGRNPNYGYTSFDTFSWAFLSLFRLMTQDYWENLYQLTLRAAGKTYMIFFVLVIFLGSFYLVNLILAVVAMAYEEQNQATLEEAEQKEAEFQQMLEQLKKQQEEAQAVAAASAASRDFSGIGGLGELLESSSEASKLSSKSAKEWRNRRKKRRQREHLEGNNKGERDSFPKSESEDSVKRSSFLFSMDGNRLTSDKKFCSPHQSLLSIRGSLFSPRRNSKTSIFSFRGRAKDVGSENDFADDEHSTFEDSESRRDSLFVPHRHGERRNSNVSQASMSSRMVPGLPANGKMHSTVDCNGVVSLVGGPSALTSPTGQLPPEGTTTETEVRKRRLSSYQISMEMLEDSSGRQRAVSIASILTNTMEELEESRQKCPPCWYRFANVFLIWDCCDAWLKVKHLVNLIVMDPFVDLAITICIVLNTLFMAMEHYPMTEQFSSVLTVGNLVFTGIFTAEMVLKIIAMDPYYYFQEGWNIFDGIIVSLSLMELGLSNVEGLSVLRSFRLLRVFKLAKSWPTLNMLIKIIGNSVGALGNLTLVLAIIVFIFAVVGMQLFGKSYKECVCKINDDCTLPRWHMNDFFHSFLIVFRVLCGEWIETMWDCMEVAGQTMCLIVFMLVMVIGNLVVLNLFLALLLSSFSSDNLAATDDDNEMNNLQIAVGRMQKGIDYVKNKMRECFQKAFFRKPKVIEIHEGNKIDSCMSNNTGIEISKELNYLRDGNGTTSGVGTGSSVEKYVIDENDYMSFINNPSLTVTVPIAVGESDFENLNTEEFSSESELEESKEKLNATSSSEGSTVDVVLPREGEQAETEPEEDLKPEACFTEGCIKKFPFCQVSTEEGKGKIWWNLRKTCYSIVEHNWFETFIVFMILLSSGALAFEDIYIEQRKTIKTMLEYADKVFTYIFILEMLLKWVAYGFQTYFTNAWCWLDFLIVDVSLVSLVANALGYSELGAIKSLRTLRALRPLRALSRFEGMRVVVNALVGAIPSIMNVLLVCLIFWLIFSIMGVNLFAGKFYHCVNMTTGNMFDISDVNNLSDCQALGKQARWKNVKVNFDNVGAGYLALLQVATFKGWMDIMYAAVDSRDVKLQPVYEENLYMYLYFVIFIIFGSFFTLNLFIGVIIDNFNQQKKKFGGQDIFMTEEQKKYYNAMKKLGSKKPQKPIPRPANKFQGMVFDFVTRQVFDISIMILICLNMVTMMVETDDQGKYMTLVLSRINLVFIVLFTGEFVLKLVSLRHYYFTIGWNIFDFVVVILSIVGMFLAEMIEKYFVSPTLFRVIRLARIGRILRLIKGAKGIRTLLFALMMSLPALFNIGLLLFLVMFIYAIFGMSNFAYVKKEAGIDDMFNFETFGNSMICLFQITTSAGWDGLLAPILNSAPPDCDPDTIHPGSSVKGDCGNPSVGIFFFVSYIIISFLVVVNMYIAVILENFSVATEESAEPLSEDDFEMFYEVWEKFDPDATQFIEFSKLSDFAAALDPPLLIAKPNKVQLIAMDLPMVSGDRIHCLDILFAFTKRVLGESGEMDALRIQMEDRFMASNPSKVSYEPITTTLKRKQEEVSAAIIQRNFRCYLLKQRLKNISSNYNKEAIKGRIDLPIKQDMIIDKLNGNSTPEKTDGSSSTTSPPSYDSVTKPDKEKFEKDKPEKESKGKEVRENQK

Turning to `CC[C@H](C)[C@@H]1NC(=O)[C@@H]2CSSC[C@@H]3NC(=O)[C@H](C(C)C)NC(=O)[C@H](CC(C)C)NC(=O)[C@H](CC(N)=O)NC(=O)[C@@H]4CCCN4C(=O)[C@H](CCCNC(=N)N)NC(=O)[C@H](CSSC[C@H](NC(=O)[C@@H](N)CCC(=O)O)C(=O)N[C@@H](CC(C)C)C(=O)NCC(=O)N[C@@H](Cc4ccccc4)C(=O)N[C@@H](CCSC)C(=O)N[C@@H](CCCNC(=N)N)C(=O)N[C@@H](CCCCN)C(=O)N2)NC(=O)[C@H](CSSC[C@@H](C(=O)N[C@@H](CCCCN)C(=O)N[C@@H](Cc2ccc(O)cc2)C(=O)N[C@H](C(=O)N[C@@H](Cc2ccccc2)C(N)=O)C(C)C)NC(=O)[C@H](Cc2c[nH]c4ccccc24)NC(=O)[C@H](CCCCN)NC(=O)[C@H](Cc2cnc[nH]2)NC(=O)[C@H]([C@@H](C)O)NC(=O)[C@H](CCCNC(=N)N)NC(=O)[C@H](CO)NC3=O)NC(=O)[C@H](CCCCN)NC(=O)[C@H](CC(=O)O)NC(=O)[C@H](CC(N)=O)NC(=O)[C@H](CC(=O)O)NC(=O)[C@@H]2CCCN2C1=O` [SEQ ID NO: 18] (H-ECLGFMRKCIPDNDKCCRPNLVCSRTHKWCKYVF-NH2; disulfide 2-17, 9-23, 16-30), the IC50 was determined as 0.15 µM on hNav1.3 and 14.2 µM on hNav1.5 (setting [1]).

Turning to `CC[C@H](C)[C@@H]1NC(=O)[C@@H]2CSSC[C@@H]3NC(=O)[C@H](C(C)C)NC(=O)[C@H](CC(C)C)NC(=O)[C@H](CC(N)=O)NC(=O)[C@@H]4CCCN4C(=O)[C@H](CCCNC(=N)N)NC(=O)[C@H](CSSC[C@H](NC(=O)[C@H](C)N)C(=O)N[C@@H](CC(C)C)C(=O)NCC(=O)N[C@@H](Cc4ccccc4)C(=O)N[C@@H](CCSC)C(=O)N[C@@H](CCCNC(=N)N)C(=O)N[C@@H](CCCCN)C(=O)N2)NC(=O)[C@H](CSSC[C@@H](C(=O)N[C@@H](CCCCN)C(=O)N[C@@H](Cc2ccc(O)cc2)C(=O)N[C@H](C(=O)N[C@@H](Cc2ccccc2)C(N)=O)C(C)C)NC(=O)[C@H](Cc2c[nH]c4ccccc24)NC(=O)[C@H](CCCCN)NC(=O)[C@H](Cc2cnc[nH]2)NC(=O)[C@H]([C@@H](C)O)NC(=O)[C@H](CCCNC(=N)N)NC(=O)[C@H](CO)NC3=O)NC(=O)[C@H](CCCCN)NC(=O)[C@H](CC(=O)O)NC(=O)[C@H](CC(N)=O)NC(=O)[C@H](CC(=O)O)NC(=O)[C@@H]2CCCN2C1=O` [SEQ ID NO: 20] (H-ACLGFMRKCIPDNDKCCRPNLVCSRTHKWCKYVF-NH2; disulfide 2-17, 9-23, 16-30), the IC50 at hNav1.3 worked out at 0.08 µM; on hNav1.5 (setting [1]), 9.86 µM.

On to `CC[C@H](C)[C@@H]1NC(=O)[C@@H]2CSSC[C@@H]3NC(=O)[C@H](C(C)C)NC(=O)[C@H](CC(C)C)NC(=O)[C@H](CC(N)=O)NC(=O)[C@@H]4CCCN4C(=O)[C@H](CCCNC(=N)N)NC(=O)[C@H](CSSC[C@H](NC(=O)[C@@H](N)CC(=O)O)C(=O)N[C@@H](CC(C)C)C(=O)NCC(=O)N[C@H](Cc4ccccc4)C(=O)N[C@@H](CCSC)C(=O)N[C@@H](CCCNC(=N)N)C(=O)N[C@@H](CCCCN)C(=O)N2)NC(=O)[C@H](CSSC[C@@H](C(=O)N[C@@H](CCCCN)C(=O)N[C@@H](Cc2ccc(O)cc2)C(=O)N[C@H](C(=O)N[C@@H](Cc2ccccc2)C(N)=O)C(C)C)NC(=O)[C@H](Cc2c[nH]c4ccccc24)NC(=O)[C@H](CCCCN)NC(=O)[C@H](Cc2c[nH]cn2)NC(=O)[C@H]([C@@H](C)O)NC(=O)[C@H](CCCNC(=N)N)NC(=O)[C@H](CO)NC3=O)NC(=O)[C@H](CCCCN)NC(=O)[C@H](CC(=O)O)NC(=O)[C@H](CC(N)=O)NC(=O)[C@H](CC(=O)O)NC(=O)[C@@H]2CCCN2C1=O` [SEQ ID NO: 273], for which, on hNav1.5 (IWQ Use Nav1.5), the IC50 was more than 5 µM.

For `CC[C@H](C)[C@@H]1NC(=O)[C@@H]2CSSC[C@@H]3NC(=O)[C@H](C(C)C)NC(=O)[C@H](CC(C)C)NC(=O)[C@H](CC(N)=O)NC(=O)[C@@H]4CCCN4C(=O)[C@H](CCCNC(=N)N)NC(=O)[C@H](CSSC[C@H](NC(=O)[C@@H](N)CC(=O)O)C(=O)N[C@@H](CC(C)C)C(=O)NCC(=O)N[C@@H](Cc4ccccc4)C(=O)N[C@@H](CCSC)C(=O)N[C@@H](CCCNC(=N)N)C(=O)N[C@@H](CCCCN)C(=O)N2)NC(=O)[C@H](CSSC[C@@H](C(=O)N[C@@H](CCCCN)C(=O)N[C@@H](Cc2ccc(O)cc2)C(=O)N[C@H](C(=O)N[C@@H](Cc2ccccc2)C(N)=O)C(C)C)NC(=O)[C@H](Cc2c[nH]c4ccccc24)NC(=O)[C@H](CCC(N)=O)NC(=O)[C@H](Cc2c[nH]cn2)NC(=O)[C@H]([C@@H](C)O)NC(=O)[C@H](CCCNC(=N)N)NC(=O)[C@H](CO)NC3=O)NC(=O)[C@H](CCCCN)NC(=O)[C@H](CC(=O)O)NC(=O)[C@H](CC(N)=O)NC(=O)[C@H](CC(=O)O)NC(=O)[C@@H]2CCCN2C1=O` [SEQ ID NO: 763, [Gln28]GpTx-1] (H-DCLGFMRKCIPDNDKCCRPNLVCSRTHQWCKYVF-NH2; disulfide 2-17, 9-23, 16-30), the IC50 at hNav1.5 (read-out: IWQ Use Nav1.5) was 22.7 µM.

At hNav1.5 (IWQ Use Nav1.5 (μM)), `CC[C@@H](C)[C@H]1NC(=O)[C@H]2CSSC[C@H]3NC(=O)[C@@H](C(C)C)NC(=O)[C@@H](CC(C)C)NC(=O)[C@@H](CC(N)=O)NC(=O)[C@H]4CCCN4C(=O)[C@@H](CCCNC(=N)N)NC(=O)[C@@H](CSSC[C@@H](NC(=O)[C@H](N)CC(=O)O)C(=O)N[C@H](CC(C)C)C(=O)NCC(=O)N[C@H](Cc4ccccc4)C(=O)N[C@H](CCSC)C(=O)N[C@H](CCCNC(=N)N)C(=O)N[C@H](CCCCN)C(=O)N2)NC(=O)[C@@H](CSSC[C@H](C(=O)N[C@H](CCCCN)C(=O)N[C@H](Cc2ccc(O)cc2)C(=O)N[C@@H](C(=O)N[C@H](Cc2ccccc2)C(N)=O)C(C)C)NC(=O)[C@@H](Cc2c[nH]c4ccccc24)NC(=O)[C@@H](CCCCN)NC(=O)[C@@H](Cc2c[nH]cn2)NC(=O)[C@@H]([C@H](C)O)NC(=O)[C@@H](CCCNC(=N)N)NC(=O)[C@@H](CO)NC3=O)NC(=O)[C@@H](CCCCN)NC(=O)[C@@H](CC(=O)O)NC(=O)[C@@H](CC(N)=O)NC(=O)[C@@H](CC(=O)O)NC(=O)[C@H]2CCCN2C1=O` [compound 2] showed an IC50 of 11.3 µM.

With `CC[C@H](C)[C@@H]1NC(=O)[C@@H]2CSSC[C@@H]3NC(=O)[C@H](C(C)C)NC(=O)[C@H](CC(C)C)NC(=O)[C@H](CC(N)=O)NC(=O)[C@@H]4CCCN4C(=O)[C@H](CCCNC(=N)N)NC(=O)[C@H](CSSC[C@H](NC(=O)[C@@H](N)CC(=O)O)C(=O)N[C@@H](CC(C)C)C(=O)NCC(=O)N[C@@H](Cc4ccccc4)C(=O)N[C@@H](CCSC)C(=O)N[C@@H](CCCNC(=N)N)C(=O)N[C@@H](CCCCN)C(=O)N2)NC(=O)[C@H](CSSC[C@@H](C(=O)N[C@@H](CCCCN)C(=O)N[C@@H](Cc2ccc(O)cc2)C(=O)N[C@H](C(=O)N[C@@H](Cc2ccccc2)C(N)=O)C(C)C)NC(=O)[C@H](Cc2c[nH]c4ccccc24)NC(=O)[C@H](CCCCN)NC(=O)[C@H](Cc2c[nH]cn2)NC(=O)[C@H](Cc2c[nH]cn2)NC(=O)[C@H](CCCNC(=N)N)NC(=O)[C@H](CO)NC3=O)NC(=O)[C@H](CCCCN)NC(=O)[C@H](CC(=O)O)NC(=O)[C@H](CC(N)=O)NC(=O)[C@H](CC(=O)O)NC(=O)[C@@H]2CCCN2C1=O` [compound 337] (H-DCLGFMRKCIPDNDKCCRPNLVCSRHHKWCKYVF-NH2; disulfide 2-17, 9-23, 16-30), the IC50 on hNav1.5 (Table 22, IonWorks Quattro, use, […], read-out: IWQ Use Nav1.5) was 4.52 µM.

Turning to `CC[C@H](C)[C@@H]1NC(=O)[C@@H]2CSSC[C@@H]3NC(=O)[C@H](C(C)C)NC(=O)[C@H](CC(C)C)NC(=O)[C@H](CC(N)=O)NC(=O)[C@@H]4CCCN4C(=O)[C@H](CCCNC(=N)N)NC(=O)[C@H](CSSC[C@H](NC(=O)[C@@H](N)CC(=O)O)C(=O)N[C@@H](CC(C)C)C(=O)NCC(=O)N[C@@H](Cc4ccccc4)C(=O)N[C@@H](CCSC)C(=O)N[C@@H](CCCNC(=N)N)C(=O)N[C@@H](CCCCN)C(=O)N2)NC(=O)[C@H](CSSC[C@@H](C(=O)N[C@@H](CCCCN)C(=O)N[C@@H](Cc2ccc(O)cc2)C(=O)N[C@H](C(=O)N[C@H](Cc2ccccc2)C(N)=O)C(C)C)NC(=O)[C@H](Cc2c[nH]c4ccccc24)NC(=O)[C@H](CCCCN)NC(=O)[C@H](Cc2c[nH]cn2)NC(=O)[C@H]([C@@H](C)O)NC(=O)[C@H](CCCNC(=N)N)NC(=O)[C@H](CO)NC3=O)NC(=O)[C@H](CCCCN)NC(=O)[C@H](CC(=O)O)NC(=O)[C@H](CC(N)=O)NC(=O)[C@H](CC(=O)O)NC(=O)[C@@H]2CCCN2C1=O` [compound 404], on hNav1.5 (IWQ Use Nav1.5 (μM)), the IC50 came out at 20.7 µM.

For the compound `CC[C@H](C)[C@@H]1NC(=O)[C@@H]2CSSC[C@@H]3NC(=O)[C@H](C(C)C)NC(=O)[C@H](CC(C)C)NC(=O)[C@H](CC(N)=O)NC(=O)[C@@H]4CCCN4C(=O)[C@H](CCCNC(=N)N)NC(=O)[C@H](CSSC[C@H](NC(=O)[C@@H](N)CC(=O)O)C(=O)N[C@@H](CC(C)C)C(=O)NCC(=O)N[C@@H](C)C(=O)N[C@@H](CCSC)C(=O)N[C@@H](CCCNC(=N)N)C(=O)N[C@@H](CCCCN)C(=O)N2)NC(=O)[C@H](CSSC[C@@H](C(=O)N[C@@H](CCCCN)C(=O)N[C@@H](Cc2ccc(O)cc2)C(=O)N[C@H](C(=O)N[C@@H](Cc2ccccc2)C(N)=O)C(C)C)NC(=O)[C@H](Cc2c[nH]c4ccccc24)NC(=O)[C@H](CCC(=O)O)NC(=O)[C@H](Cc2c[nH]cn2)NC(=O)[C@H]([C@@H](C)O)NC(=O)[C@H](CCCNC(=N)N)NC(=O)[C@H](CO)NC3=O)NC(=O)[C@H](CCCCN)NC(=O)[C@H](CC(=O)O)NC(=O)[C@H](CC(N)=O)NC(=O)[C@H](CC(=O)O)NC(=O)[C@@H]2CCCN2C1=O` [compound 691], on hNav1.5 (IonWorks Quattro, use-dependent protocol, hNav1.5, read-out: IWQ Use Nav1.5), the IC50 was more than 5 µM.

Values taken from patent US9340590B2 (priority 2011, dated 2016).
